Assay results reported in PMC4270767 (PLoS ONE, 2014).
Values joined by “and” are separate entries in the source; they are usually repeats but may differ in a detail not shown here. Equal values may be shown once. Where a name gives a salt, the structure may show the parent alone. Read-outs that look alike come from different tables or passages of the source.

Key:
MtSerB2 [1] = biological target: T1, MtSerB2 (Mycobacterium tuberculosis, UniProt O53289); assay: Inhibition of MtSerB2 hydrolysis of L-phosphoserine (malachite green); assay type: biochemical, M. tuberculosis
T1 sequence (O53289 whole entry): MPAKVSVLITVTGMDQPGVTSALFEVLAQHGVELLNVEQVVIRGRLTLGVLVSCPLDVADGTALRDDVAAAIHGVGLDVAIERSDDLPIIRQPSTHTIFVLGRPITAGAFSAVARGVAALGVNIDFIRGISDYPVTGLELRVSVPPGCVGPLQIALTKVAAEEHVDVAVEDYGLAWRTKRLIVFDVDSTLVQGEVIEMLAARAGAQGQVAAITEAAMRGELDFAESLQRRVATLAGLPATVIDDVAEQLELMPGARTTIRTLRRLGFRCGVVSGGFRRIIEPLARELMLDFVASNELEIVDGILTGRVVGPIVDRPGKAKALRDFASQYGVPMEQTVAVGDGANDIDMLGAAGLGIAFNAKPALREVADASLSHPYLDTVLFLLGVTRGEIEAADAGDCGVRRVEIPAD

MtSerB2 [2] = biological target: T1, MtSerB2; assay type: biochemical, M. tuberculosis; conditions: for effect of divalent cation on MtSerB2 activity: relative to Mg^2+
MtSerB2 [3] = biological target: T1, MtSerB2; assay: Effects of added amino acids on MtSerB2 phosphatase activity; assay type: biochemical, M. tuberculosis; conditions: for % activation or IC50: amino acids without effect
[4] = biological target: PSP domain of MtSerB2 (PSPD) (Mycobacterium tuberculosis, UniProt O53289); assay: biochemical; parameters: species or system M. tuberculosis
Sequence of PSP domain of MtSerB2 (PSPD) (O53289 165-409 limits assumed): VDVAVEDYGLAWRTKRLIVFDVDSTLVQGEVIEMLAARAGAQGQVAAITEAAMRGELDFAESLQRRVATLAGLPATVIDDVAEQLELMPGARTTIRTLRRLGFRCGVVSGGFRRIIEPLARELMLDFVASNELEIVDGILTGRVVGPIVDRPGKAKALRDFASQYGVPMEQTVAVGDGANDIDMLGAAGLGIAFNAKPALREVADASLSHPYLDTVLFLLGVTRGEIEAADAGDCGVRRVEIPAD

MtSerB2 [5] = biological target: T1, MtSerB2; conditions: Superdex S200, samples pre-equilibrated 1 h

With `O=C(O)CN(CCN(CC(=O)O)CC(=O)O)CC(=O)O` [EDTA] the “Inhibition of phosphatase activity” value (MtSerB2 [1]) was “decrease of enzyme activity”.

With `[Ni+2]` [Ni^2+] the “effect of divalent cation on MtSerB2 activity” value (from here on “effect of divalent cation”) (MtSerB2 [2]) was “deactivates”.

`CC(C)C[C@H](N)C(=O)O` [Leu] was tested, and the Activation factor (MtSerB2 [3]) was “Non modulator” and the “% activation or IC50” value (MtSerB2 [3]) was “No Change”.

For `C[N+](C)(C)CCOP(=O)([O-])OCC(O)CO` (stereo not drawn) [α-GPC, α-Glycerophosphorylcholine], the “Imax (%) PSPD” value [4] was 31% and the “Imax (%) SerB2” value (MtSerB2 [1]) was 35%.

For `NCCCC[C@H](N)C(=O)O` [Lys], the “% activation” value (MtSerB2 [3]) was 40% and the Activation factor (MtSerB2 [3]) was “Activation”.

`C[C@H](N)C(=O)O` [Ala] was tested, and the Activation factor (MtSerB2 [3]) was “Inhibition” and the IC50 (MtSerB2 [3]) was 3830 ± 234 µM.

With `CC[C@H](C)[C@H](N)C(=O)O` [Ile] the Activation factor (MtSerB2 [3]) was “Non modulator” and the “% activation or IC50” value (MtSerB2 [3]) was “No Change”.

In the case of `N[C@@H](CCC(=O)O)C(=O)O` [Glu], the Activation factor (MtSerB2 [3]) is reported as “Inhibition” and the IC50 (MtSerB2 [3]) is reported as 363 ± 20 µM.

For `N[C@@H](Cc1ccccc1)C(=O)O` [Phe], the Activation factor (MtSerB2 [3]) was “Activation”.

For `N=C(N)NCCC[C@H](N)C(=O)O` [Arg], the Activation factor (MtSerB2 [3]) was “Inhibition” and the IC50 (MtSerB2 [3]) was 632 ± 14 µM.

In the case of `NC(=O)C[C@H](N)C(=O)O` [Asn], the Activation factor (MtSerB2 [3]) is reported as “Non modulator” and the “% activation or IC50” value (MtSerB2 [3]) is reported as “No Change”.

With `N[C@@H](Cc1c[nH]c2ccccc12)C(=O)O` [Trp] the Activation factor (MtSerB2 [3]) was “Inhibition” and the IC50 (MtSerB2 [3]) was 322 ± 23 µM.

`CC(C)[C@H](N)C(=O)O` [Val] was tested, and the Activation factor (MtSerB2 [3]) was “Inhibition” and the IC50 (MtSerB2 [3]) was 3660 ± 212 µM.

For `NC(CP(=O)(O)O)C(=O)O` (racemic) [D,L- AP3, DL-2-Amino-3-Phosphonopropionic Acid], the “Imax (%) PSPD” value [4] was 19% and the “Imax (%) SerB2” value (MtSerB2 [1]) was 22%.

`CSCC[C@H](N)C(=O)O` [Met] was tested, and the Activation factor (MtSerB2 [3]) was “Non modulator” and the “% activation or IC50” value (MtSerB2 [3]) was “No Change”.

For `N[C@@H](Cc1ccc(O)cc1)C(=O)O` [Tyr], the Activation factor (MtSerB2 [3]) was “Activation”.

`[Co+2]` [Co^2+] was tested, and the “effect of divalent cation” value (MtSerB2 [2]) was “deactivates”.

For `[Mn+2]` [Mn^2+], the “effect of divalent cation” value (MtSerB2 [2]) was “deactivates”.

In the case of `C[C@@H](O)[C@H](N)C(=O)O` [Thr], the Activation factor (MtSerB2 [3]) is reported as “Inhibition” and the IC50 (MtSerB2 [3]) is reported as 3460 ± 206 µM.

With `[F-].[Na+]` [NaF, Sodium fluoride] the “Imax (%) PSPD” value [4] was 72%, the IC50 ([4]; read-out: IC50 (µM) PSPD) was 2780 ± 216 µM and the “Imax (%) SerB2” value (MtSerB2 [1]) was 55%. The “Inhibition of phosphatase activity” value (MtSerB2 [1]) was “decrease of enzyme activity”, the IC50 (MtSerB2 [1]; read-out: IC50) was about 3000 µM and the IC50 (MtSerB2 [1]; read-out: IC50 (µM) SerB2) was 3110 ± 155 µM.

With `N[C@@H](Cc1c[nH]cn1)C(=O)O` [His] the Activation factor (MtSerB2 [3]) was “Inhibition” and the IC50 (MtSerB2 [3]) was 4860 ± 218 µM.

With `NCC(=O)O` [Gly] the Activation factor (MtSerB2 [3]) was “Inhibition” and the IC50 (MtSerB2 [3]) was 381 ± 15 µM.

For `C[N+](C)(C)CCOP(=O)(O)O` [Phosphorylcholine], the “Imax (%) PSPD” value [4] was 14% and the “Imax (%) SerB2” value (MtSerB2 [1]) was 10%.

In the case of Sodium Vanadate, the “Imax (%) PSPD” value [4] is reported as 93% and the “Imax (%) SerB2” value (MtSerB2 [1]) is reported as 88%.

`NC(=O)CC[C@H](N)C(=O)O` [Gln] was tested, and the Activation factor (MtSerB2 [3]) was “Inhibition” and the IC50 (MtSerB2 [3]) was 432 ± 13 µM.

`N[C@@H](CC(=O)O)C(=O)O` [Asp] was tested, and the Activation factor (MtSerB2 [3]) was “Inhibitor” and the IC50 (MtSerB2 [3]) was 1620 ± 84 µM.

`CN(C)CCCN1c2ccccc2Sc2ccc(Cl)cc21` [Chlorpromazine, Chlorpromazine Hydrochloride] was tested, and the “Imax (%) PSPD” value [4] was 95%, the IC50 ([4]; IC50 (µM) PSPD) was ~6.25 µM and 6.25 µM and the “Imax (%) SerB2” value (MtSerB2 [1]) was 70%. For the same compound, the “Inhibition of phosphatase activity” value (MtSerB2 [1]) was “inhibition at nanomolar concentrations”, the type of inhibition (MtSerB2 [1]) was “non-competitive” and the IC50 (MtSerB2 [1]; read-out: IC50 (µM) SerB2) was 0.92 ± 0.1 µM.

`C=C1[C@@H](O)[C@@H]2O[C@]3(CC[C@H](/C=C/[C@@H](C)[C@@H]4CC(C)=C[C@@]5(O[C@H](C[C@@](C)(O)C(=O)O)CC[C@H]5O)O4)O3)CC[C@H]2O[C@@H]1[C@@H](O)C[C@H](C)[C@H]1O[C@@]2(CCCCO2)CC[C@H]1C` [Okadaic acid] was tested, and the “Imax (%) PSPD” value [4] was 22%, the “Imax (%) SerB2” value (MtSerB2 [1]) was 14% and the “Inhibition of phosphatase activity” value (MtSerB2 [1]) was “not able to inhibit the phosphatase activity”.

For `N[C@@H](CP(=O)(O)O)C(=O)O` [L- AP3, L-2-amino-3-phosphonopropionate], the “Imax (%) PSPD” value [4] was 21% and the “Imax (%) SerB2” value (MtSerB2 [1]) was 23%.

For `[Ca+2].[Cl-].[Cl-]` [Ca^2+], the “effect of divalent cation” value (MtSerB2 [2]) was “deactivates”.

`N[C@@H](CS)C(=O)O` [Cys] was tested, and the Activation factor (MtSerB2 [3]) was “Non Modulator” and the “% activation or IC50” value (MtSerB2 [3]) was “No Change”.

`N[C@@H](CO)C(=O)O` [L-serine] was tested, and the “Imax (%) PSPD” value [4] was 70%, the IC50 ([4]; IC50 (µM) PSPD) was 824 ± 39 µM and the “molar ratio of L-serine and MtSerB2 at shift of dimer to tetramer (higher order oligomer)” value (MtSerB2 [5]) was about 0.8. The Activation factor (MtSerB2 [3]) was “Inhibition”, the IC50 (MtSerB2 [1]) was 0.78 ± 0.08 µM and the “Imax (%) SerB2” value (MtSerB2 [1]) was 65%.

With `[Zn+2]` [Zn^2+] the “concentration level of inhibition” value (MtSerB2 [2]) was “inhibits the activity at nanomolar levels” and the “effect of divalent cation” value (MtSerB2 [2]) was “deactivates”.

For `O=C(O)[C@@H]1CCCN1` [Pro], the Activation factor (MtSerB2 [3]) was “Inhibition” and the IC50 (MtSerB2 [3]) was over 5000 µM.
